Structures are written as SMILES.

In series [1] the test system is MCF-10A cells. As to the kind of experiment: Total cellular Zn^2+ by ICP-AES. The format is cell-based, human. The conditions noted are these: 30 μM ZNA with 30 μM ZnSO4, three hours; detection limit 1.00 μg/L. On the procedure:
(§1) Inductively coupled plasma-atomic emission spectroscopy (ICP-AES) analysis: Cells were cultured to 80% confluence in 10-cm plates and the growth media was then replaced with low serum (2% FBS) drug-containing media. After three hours of treatment, the media was discarded and the cells washed with 1×PBS. To each 10-cm plate, 1 mL of nitric acid (TraceSELECT Ultra for trace analysis, Sigma) was added directly to the plate. The nitric acid mixture was submitted for inductively coupled plasma-atomic emission spectroscopy (ICP-AES) analysis following methods established by the Environmental Protection Agency. Martin T D, Brockhoff C A, Creed J T. Method 200.7 Determination of Metals and Trace Elements in Water and Wastes by Inductively Coupled Plasma-Atomic Emission Spectrometry. Environmental Monitoring Systems Laboratory, US Environmental Protection Agency 1994. The experiment was performed in triplicate for each cell line and a fourth plate of cells was used to measure total protein (BCA assay, Thermo Fisher, Waltham, Mass., USA). The ICP-AES data were then normalized to total protein for each cell line used.
(§2) To further validate the combinatorial effect of ZNA and Zn^2+, inductively coupled plasma-atomic emission spectroscopy (ICP-AES) was employed to quantify absolute levels of cellular Zn^2+ following treatment. Four cell lines were treated with either 30 μM ZNA alone or 30 μM ZNA in conjunction with 30 μM ZnSO4 for three hours before harvesting. The samples were then analyzed by ICP-AES and the resulting data normalized to total protein (FIG. 8). […] The values obtained from the ICP-AES experiment correlate with the trends observed following FluoZin-3 measurements of Zn^2+, confirming the specificity of the fluorophore for Zn^2+ over other ions.

Series [2] relates to MCF-7 cells. As to the kind of experiment: Total cellular Zn^2+ by ICP-AES. The class given is cell-based, human. The conditions noted are these: 30 μM ZNA with 30 μM ZnSO4, three hours. The procedure: as §1, §2
Series [3] relates to MDA-MB-231 cells. The series is described as follows: Total cellular Zn^2+ by ICP-AES. The class given is cell-based, human. The conditions noted are these: 30 μM ZNA with 30 μM ZnSO4, three hours. The procedure:
as §1, §2

The test system of series [4] is T47D cells. As to the kind of experiment: Total cellular Zn^2+ by ICP-AES. The class given is cell-based, human. The following applies: 30 μM ZNA with 30 μM ZnSO4, three hours. The procedure:
as §1, §2

The test system of series [5] is MCF-10A cells. The series is described as follows: Cellular proliferation, EdU incorporation assay. The format is cell-based, human. The conditions noted are these: ZNA/ZnSO4, 6 hours.
Series [6] can be described thus: in vivo. More on the design: species or system Sprague-Dawley rats. The conditions noted are these: rat. On the procedure:
ZNA has promising pkpd parameters. An initial pharmacokinetic (PK) analysis on ZNA was performed at 1 mg/kg IV, 5 mg/kg PO. ZNA was dosed to female Sprague-Dawley rats at either 1 mg/kg intravenously or at 5 mg/kg orally. Plasma was collected with K2EDTA and stored at −80° C. until analysis. Quantification of ZNA was performed by protein precipitation followed by ultra-high performance liquid chromatography (UHPLC) interfaced to an electrospray ionization quadrapole time-of-flight mass spectrometer (ESI-QTOF). Plasma concentrations were determined from a calibration curve using […]. The values determined were fit with Phoenix WinNonlin and pharmacokinetic values reported.
The plasma concentrations for ZNA were very low, and most samples fell below the lower limit of quantification for the assay (10.0 ng/mL). This limited the data available for fitting in WinNonlin. To increase the amount of data for fitting, values from below the curve were extrapolated to approximately 40% of the LLOQ and were used for PK fitting. The percent of the area extrapolated in the PO PK animals ranged from 34-70% which was considered quite high. […] The oral bioavailability determined was approximately 6%. This value is considered a rough estimate based upon the area extrapolated and the unusually high clearance determined. […] Possible explanations for the high clearance are binding of compound to red blood cells, extremely rapid clearance that requires collection of earlier time points to establish a more accurate CO, and extrahepatic elimination.

As for `COc1ccc(-c2c(Cc3ccccc3)[nH]/c(=N\C(=O)c3ccccc3F)n2C)cc1` [ZNA, (E)-N-(4-benzyl-5-(4-methoxyphenyl)-1-methyl-1H-imidazol-2(3H)-ylidene)-2-fluorobenzamide], the “concentration of Zn^2+” value in series [1] is reported as “not detectable”; in series [2], 1.35 ng Zn^2+ per microgram of protein; in series [3], 0.82 ng Zn^2+ per microgram of protein; in series [4], 0.52 ng Zn^2+ per microgram of protein. In series [5], the “proliferation (EdU)” value was “somewhat affected”. In series [6] (female, Sprague-Dawley), this molecule came in with a bioavailability of roughly 6%. The half-life in series [6] (female, Sprague-Dawley) was 1.9 h. In series [6] (female, Sprague-Dawley, iv), the “clearance relative to hepatic blood flow” value was found to be 235%. Further, in series [6] (female, Sprague-Dawley, iv, 1 mg/kg, AUCINF_obs), the AUC(0-inf) came to 129 ng·h/mL. Further, the AUC in series [6] (female, Sprague-Dawley, iv, 1 mg/kg, AUCall) was 119 ng·h/mL. Moreover, the MRT inf in series [6] (female, Sprague-Dawley, iv, 1 mg/kg, MRTINF_obs) was determined as 2.1 h. The “percent of the area extrapolated” value in series [6] (female, Sprague-Dawley, po) was 34-70%. The molecule also had a Cmax in series [6] (female, Sprague-Dawley, po, 5 mg/kg, Cmax) of 11.5 ng/mL. Also, the volume of distribution result in series [6] (iv) is on record as “very high volume of distribution”.

Values taken from patent publication US10493061B2, “Compositions and methods comprising 2-(acylamino)imidazoles” (priority 2014, dated 2019).
